Assay results taken from ChEMBL document CHEMBL1159144, “Novel pyridazino[4,5-b][1,5]oxazepines and -thiazepines as 5-HT1A receptor ligands” (Bioorg Med Chem Lett, 1997).

Assays:
[1] = molecular target: T1, Adrenergic receptor alpha-2 (Rattus norvegicus, UniProt P22086+P19328+P22909); assay: Binding affinity towards Alpha-2 adrenergic receptor; assay type: protein assay
T1 sequence (P22086 whole entry): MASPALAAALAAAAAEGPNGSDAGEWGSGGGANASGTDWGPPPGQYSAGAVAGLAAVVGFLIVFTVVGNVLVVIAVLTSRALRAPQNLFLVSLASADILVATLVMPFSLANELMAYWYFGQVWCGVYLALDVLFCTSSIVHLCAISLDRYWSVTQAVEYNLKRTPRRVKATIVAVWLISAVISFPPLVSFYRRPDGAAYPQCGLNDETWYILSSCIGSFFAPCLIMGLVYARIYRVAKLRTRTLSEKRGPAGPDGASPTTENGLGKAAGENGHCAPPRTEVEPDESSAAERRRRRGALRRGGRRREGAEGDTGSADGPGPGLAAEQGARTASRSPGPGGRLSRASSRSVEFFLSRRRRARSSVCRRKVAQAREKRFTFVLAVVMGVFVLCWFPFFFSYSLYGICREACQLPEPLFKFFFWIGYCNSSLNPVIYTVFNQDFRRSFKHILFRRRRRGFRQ
T1 sequence (P19328 whole entry): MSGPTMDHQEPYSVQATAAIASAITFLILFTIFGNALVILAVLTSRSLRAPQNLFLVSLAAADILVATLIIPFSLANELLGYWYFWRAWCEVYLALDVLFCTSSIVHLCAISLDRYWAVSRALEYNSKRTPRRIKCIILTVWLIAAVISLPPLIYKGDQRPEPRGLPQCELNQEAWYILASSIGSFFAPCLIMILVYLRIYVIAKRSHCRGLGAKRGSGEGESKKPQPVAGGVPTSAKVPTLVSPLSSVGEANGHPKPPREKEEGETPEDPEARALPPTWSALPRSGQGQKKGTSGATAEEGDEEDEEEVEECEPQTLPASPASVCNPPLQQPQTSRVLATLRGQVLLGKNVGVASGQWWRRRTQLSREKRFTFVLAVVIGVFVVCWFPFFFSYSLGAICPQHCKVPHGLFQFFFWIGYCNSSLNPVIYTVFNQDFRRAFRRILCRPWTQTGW
T1 sequence (P22909 whole entry): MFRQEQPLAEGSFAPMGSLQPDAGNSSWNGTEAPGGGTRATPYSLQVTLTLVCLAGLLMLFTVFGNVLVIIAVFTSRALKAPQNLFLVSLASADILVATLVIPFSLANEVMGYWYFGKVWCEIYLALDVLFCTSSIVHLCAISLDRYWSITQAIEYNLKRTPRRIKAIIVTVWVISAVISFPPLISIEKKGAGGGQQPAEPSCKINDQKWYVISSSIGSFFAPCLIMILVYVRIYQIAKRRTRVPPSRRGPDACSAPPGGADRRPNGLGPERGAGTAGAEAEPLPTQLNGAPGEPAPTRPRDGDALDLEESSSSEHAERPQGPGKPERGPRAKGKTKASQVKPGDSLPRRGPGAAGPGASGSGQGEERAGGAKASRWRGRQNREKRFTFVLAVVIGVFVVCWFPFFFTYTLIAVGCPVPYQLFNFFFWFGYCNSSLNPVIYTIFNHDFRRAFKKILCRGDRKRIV

[2] = molecular target: T2, 5-hydroxytryptamine receptor 1A (Rattus norvegicus, UniProt P19327); assay: Binding affinity towards 5-hydroxytryptamine 1A receptor using receptor binding assay
T2 sequence (P19327 whole entry): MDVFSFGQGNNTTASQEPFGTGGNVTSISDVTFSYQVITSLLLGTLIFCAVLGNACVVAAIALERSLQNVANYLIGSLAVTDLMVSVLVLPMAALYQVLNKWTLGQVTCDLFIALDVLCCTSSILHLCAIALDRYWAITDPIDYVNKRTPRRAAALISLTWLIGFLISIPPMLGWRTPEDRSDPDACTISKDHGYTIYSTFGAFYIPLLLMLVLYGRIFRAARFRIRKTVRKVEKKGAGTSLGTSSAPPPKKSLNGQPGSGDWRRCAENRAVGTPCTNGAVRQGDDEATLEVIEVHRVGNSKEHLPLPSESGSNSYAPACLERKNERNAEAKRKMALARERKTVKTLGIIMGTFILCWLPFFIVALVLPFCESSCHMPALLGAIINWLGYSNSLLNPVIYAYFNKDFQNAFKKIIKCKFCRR

[3] = molecular target: T3, Adrenergic receptor alpha-1 (Rattus norvegicus, UniProt P15823+P23944+P43140); assay: Binding affinity towards Alpha-1 adrenergic receptor; assay type: protein assay
T3 sequence (P15823 whole entry): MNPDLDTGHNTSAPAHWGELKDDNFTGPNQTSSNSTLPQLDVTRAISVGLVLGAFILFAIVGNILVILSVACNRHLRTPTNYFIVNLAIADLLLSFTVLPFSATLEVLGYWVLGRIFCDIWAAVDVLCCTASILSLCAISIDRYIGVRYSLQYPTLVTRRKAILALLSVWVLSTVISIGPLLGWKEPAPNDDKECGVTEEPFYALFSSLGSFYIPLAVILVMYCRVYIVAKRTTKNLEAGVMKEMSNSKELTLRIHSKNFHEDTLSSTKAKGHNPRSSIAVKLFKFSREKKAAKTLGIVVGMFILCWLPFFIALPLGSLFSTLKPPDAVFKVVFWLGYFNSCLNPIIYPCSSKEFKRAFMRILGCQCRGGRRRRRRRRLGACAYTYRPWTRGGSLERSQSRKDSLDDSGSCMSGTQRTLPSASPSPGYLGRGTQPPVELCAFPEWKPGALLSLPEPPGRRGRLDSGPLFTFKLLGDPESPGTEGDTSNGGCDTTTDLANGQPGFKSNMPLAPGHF
T3 sequence (P23944 whole entry): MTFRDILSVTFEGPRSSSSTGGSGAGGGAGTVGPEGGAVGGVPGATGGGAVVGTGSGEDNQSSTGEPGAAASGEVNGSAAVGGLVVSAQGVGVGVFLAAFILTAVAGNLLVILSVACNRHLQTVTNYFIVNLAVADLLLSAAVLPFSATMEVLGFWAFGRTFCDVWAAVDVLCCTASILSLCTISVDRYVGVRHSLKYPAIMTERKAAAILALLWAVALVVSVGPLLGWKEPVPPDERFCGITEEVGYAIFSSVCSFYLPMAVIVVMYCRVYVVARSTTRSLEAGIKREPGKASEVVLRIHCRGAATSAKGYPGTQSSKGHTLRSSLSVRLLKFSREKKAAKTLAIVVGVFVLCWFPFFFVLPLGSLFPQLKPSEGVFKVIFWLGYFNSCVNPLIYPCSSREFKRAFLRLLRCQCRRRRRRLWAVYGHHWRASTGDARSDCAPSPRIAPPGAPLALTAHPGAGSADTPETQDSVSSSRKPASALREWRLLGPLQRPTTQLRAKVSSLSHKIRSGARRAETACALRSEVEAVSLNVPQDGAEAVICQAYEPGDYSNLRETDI
T3 sequence (P43140 whole entry): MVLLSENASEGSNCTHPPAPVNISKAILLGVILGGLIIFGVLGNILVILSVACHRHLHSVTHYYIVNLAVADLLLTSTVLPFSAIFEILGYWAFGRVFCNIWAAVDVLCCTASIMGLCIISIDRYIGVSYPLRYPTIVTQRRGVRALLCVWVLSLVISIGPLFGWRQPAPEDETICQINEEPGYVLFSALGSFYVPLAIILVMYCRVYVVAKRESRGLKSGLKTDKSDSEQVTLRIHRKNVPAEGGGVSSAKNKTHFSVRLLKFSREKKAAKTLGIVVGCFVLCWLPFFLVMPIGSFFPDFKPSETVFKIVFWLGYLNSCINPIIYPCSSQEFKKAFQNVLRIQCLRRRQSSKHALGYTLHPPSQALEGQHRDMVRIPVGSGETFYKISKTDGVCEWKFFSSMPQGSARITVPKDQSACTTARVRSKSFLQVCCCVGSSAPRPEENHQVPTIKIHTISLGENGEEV

SMILES | IC50 [1] [nM] | IC50 [2] [nM] | IC50 [3] [nM]
CCSc1c(N(C)C(=O)CCNCCOc2ccccc2OC)cnn(C)c1=O |  | 32.7 | 
Cn1ncc2c(c1=O)SCCCN2C(=O)CCNCCOc1cccc(Cl)c1 |  | 181 | 
Cn1ncc2c(c1=O)SCCCN2C(=O)CCNCCOc1ccccc1 |  | 150 | 
COc1ccccc1OCC(O)CN1CCN(CCC(=O)N2CCCOc3c2cnn(C)c3=O)CC1 (stereo unspecified) | 47000 | > 1000 | > 10000
COc1ccccc1OCCNCCCC(=O)N1CCCOc2c1cnn(C)c2=O | 3900 | 17.8 | 690
COc1ccccc1OCCNC(C)C(=O)N1CCCOc2c1cnn(C)c2=O (stereo unspecified) |  | > 1000 | 
COc1ccccc1OCC(O)CN1CCN(CC(=O)N2CCCOc3c2cnn(C)c3=O)CC1 (stereo unspecified) |  | > 1000 | 
COc1ccccc1OCCN(C)CCCN1CCCSc2c1cnn(C)c2=O |  | > 1000 | 
COc1ccccc1OCCNC(C)C(=O)N1CCCSc2c1cnn(C)c2=O (stereo unspecified) |  | > 1000 | 
COc1ccccc1OCCN(CCC(=O)N1CCCSc2c1cnn(C)c2=O)Cc1ccccc1 |  | > 1000 | 
COc1ccccc1OCCNCC(=O)N1CCCOc2c1cnn(C)c2=O | 21000 | 163 | 12500
COc1ccccc1N1CCN(CC(=O)N2CCCOc3c2cnn(C)c3=O)CC1 |  | > 1000 | 

More lines, now with the values ahead:

IC50 [1] [nM] | IC50 [2] [nM] | IC50 [3] [nM] | SMILES
9500 | 134 | 16100 | COc1ccccc1OCCN(C)CCC(=O)N1CCCOc2c1cnn(C)c2=O
270 | 11.4 | 1700 | COc1ccccc1OCCNCCC(=O)N1CCCSc2c1cnn(C)c2=O
 | 1000 |  | COc1ccccc1OCCN(CCC(=O)N1CCCOc2c1cnn(C)c2=O)Cc1ccccc1
860 | 9.2 | 930 | COc1ccccc1OCCNCCCC(=O)N1CCCSc2c1cnn(C)c2=O
 | 230 |  | Cn1ncc2c(c1=O)OCCCN2C(=O)CNCCOc1ccccc1
 | 312 |  | Cn1ncc2c(c1=O)OCCCN2C(=O)CCNCCOc1cccc(Cl)c1
3100 | 37 | > 10000 | COc1ccccc1OCCNCC(=O)N1CCCSc2c1cnn(C)c2=O
 | 118 |  | COc1cccc(OCC(O)CN2CCN(CCC(=O)N3CCCSc4c3cnn(C)c4=O)CC2)c1 (stereo unspecified)
1800 | 19.5 | 1700 | COc1ccccc1OCCNCCC(=O)N1CCCOc2c1cnn(C)c2=O
2330 | 44.9 | 19000 | Cn1ncc2c(c1=O)SCCCN2C(=O)CNCC1COc2ccccc2O1 (stereo unspecified)
4600 | 299 | > 10000 | Cn1ncc2c(c1=O)OCCCN2C(=O)CNCC1COc2ccccc2O1 (stereo unspecified)
540 | 524 | 8900 | Cn1ncc2c(c1=O)OCCCN2C(=O)CCNCCOc1ccccc1
